Laboratory results reported in patent publication US11779565B2, “Small organic molecules for use in the treatment of neuroinflammatory disorders” (THE MEDICAL RESEARCH, INFRASTRUCTURE AND HEALTH SERVICES …, priority 2017, dated 2023).

Each compound was assayed on P19 cells (assay: In vitro differentiation assay of P19 cells (MAP-2 positive neurons)). Details: RA stimulation alone (5×10^−7 M), day 8.
Assay type: cell-based, murine
Protocol: P19 cells were grown in a-minimum essential medium (aMEM) (Gibco) containing 7.5% calf serum, 2.5% fetal calf serum, and 0.4 μl/ml penicillin—streptomycin (Gibco), at 37° C., 5% CO2. Cells were replenished with fresh medium every 48 h.
The medium, including RA, BMP supplements and SMs, was replenished after 48 h. After 4 days, aggregates which formed during RA treatment were dispersed enzymatically (0.05% v/v trypsin-0.02% v/v EDTA) and mechanically and plated in tissue culture grade dishes. At this stage, cells were cultured in RA-, BMP- and SM-free medium, which was refreshed every 48 h. MAP-2 positive neurons were examined at day 8 (i.e., day 4 post-RA treatment) by immunofluorescence. Briefly, at day 7, cells were re-cultured in 24 well-plates with cover slips at a final concentration of 5×10^4 cells/well. On day 8, cells were washed with PBS, fixed with PFA 4% for 15 min, permeabilized with 0.5% Triton Tx, blocked with 10% FCS, 0.1% BSA and 0.05% Tween for 30 min, and stained with MAP2 rabbit mAb (1:100, D5G1, Cell Signaling) for 1 hr. The second antibody step was performed by labeling with Alexa Fluor® 488-conjugated IgG antibody to rabbit for 1 h (1:1000; Molecular Probes USA).
Next, the effect of the small molecules on neurogenesis in a P19 differentiation model was measured. […] Neuronal differentiation is marked by the expression of the neuronal marker MAP-2, while the addition of BMP-2 reduces the levels of this marker. Addition of the murine anti-BMP-2/4 monoclonal antibody reverses the effect of BMP-2 and induces acquisition of neuronal phenotype. Thus, the effect of SM1, SM7 and SM9 on the expression of the neuronal marker MAP-2 in P19 cells was examined in the presence of RA and BMP-2. Three concentrations of the molecules were tested: 0.625 μM, 1.25 μM and 2.5 μM.

`CC1=C(/C=C/C(C)=C/C=C/C(C)=C/C(=O)O)C(C)(C)CCC1` [RA, all-trans-retinoic acid, reference compound] was tested, and the “MAP-2+ cells” value was 73.8±6.5%.

What follows are compounds tested against T1, BMP-2 (Homo sapiens, UniProt P12643) (assay: ATDC5 cell based HTS bioassay: ALP production stimulated by BMP-2 and heparin). Details: inhibition of BMP-2-stimulated ALP in ATDC5 cells, 48 hours, tested at 0.62-10 μM.
T1 construct: purchased R&D Systems
T1 sequence (P12643 283-396): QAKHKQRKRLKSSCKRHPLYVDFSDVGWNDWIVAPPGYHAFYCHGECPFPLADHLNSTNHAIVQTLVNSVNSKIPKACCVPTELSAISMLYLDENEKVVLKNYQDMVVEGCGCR
Set-up: species or system mouse
Protocol: Poly-L-lysine (Sigma-Aldrich) was added to 384-well plates and was removed after 30 min of incubation at RT. An assay medium containing DMEM/F12, 2% FBS, 100 units/ml penicillin, […] streptomycin (Biological industries) was added to each well. […] ATDC5 cells (Sigma-Aldrich) were harvested, re-suspended in assay medium and added to a final concentration of 2000 cells/well. Finally, heparin (Sigma-Aldrich) was added to a final concentration of 2 μg/ml. The cells were incubated for 48 hours at 37° C. with 5% CO2 in a humidified chamber in the presence or absence of potential small molecule inhibitors of BPM-2. After incubation, ALP levels and cell viability were determined using a completely automated protocol. Cells were washed with PBS, lysed using a lysis buffer containing 0.2% Triton X-100 in PBS supplemented with a protease inhibitor cocktail (Sigma-Aldrich) and incubated for 25 min at RT. ALP level was then determined by addition of CDP-Star® chemiluminescent substrate (Sigma-Aldrich) and measurement of luminescence after incubation for 25 min at RT in the dark. Cell viability was finally determined by addition of CellTiter-Glo® reagent (Biological Industries) and luminescence measurement after 10 min of incubation.
An ATDC5 cell based assay for assessing structure-function relationship of BMP-2 and BMP receptor IA was originally described in Keller et al (Nature Structural & Molecular Biology 2004 11, 481-488). In order to screen a large volume of potential therapeutic agents the ATDC5 cell based bioassay for detecting BMP inhibition was adapted for use in high throughput screening. The bioassay is based on the stimulation of alkaline phosphatase (ALP) production in mouse ATDC5 cells by administration of BMP-2 and heparin, and measurement of ALP levels in the presence of the potential inhibitors. […] This was achieved by using CellTiter-Glo® Luminescent Cell Viability Assay for assessing the cells' viability after the luminescent signal by CDP-Star® has faded. The simultaneous assessment of both ALP production and cells' viability was necessary since potentially toxic tested small molecules may lead to reduced ALP levels by cellular cytotoxicity rather than by interference with BMP-2 signaling. […] Particulars of the bioassay are detailed in the Experimental procedures section above.
A library of small molecules (SM) was screened using the High Throughput Screening bioassay described above. About 7600 SMs were screened, from the Maybridge library, which consists of organic “drug-like” compounds, using the pre-plated HitFinder™ Collection. […] The SM were tested at various concentrations, i.e. at 0.62 μM, 1.25 μM, 2.5 μM, 5 μM and 10 μM.

Going from `c1ccc(C2=NNC(c3ccccc3)=NN2)cc1` [SM2, 1,4-Dihydro-3,6-diphenyl-1,2,4,5-tetrazine] to `C/C(=N\NC(=S)NC(C)(C)C)c1ccc(Oc2c(Cl)cncc2Cl)cc1` [SM8, 1-tert-butyl-3-[E-1-(4-(3,5-dichloropyridin-4-yl)oxyphenyl]ethylideneamino)thiourea], the IC50 falls from 8.5 µM to 2.8 µM (3-fold).

`CCOC(=O)c1c(NC(=O)c2ccc([N+](=O)[O-])o2)nc(SC)n1Cc1cccs1` [SM3] and `CC(=O)NC(=O)CCSc1ccccc1C(=O)NC(C)=O` [SM5, N1-acetyl-2-([3-(acetylamino)-3-oxopropyl]thio)benzamide] are within 1.5-fold of each other in IC50: 2.6 µM for the first, 3.8 µM for the second.

`O=C1c2cccc3cc([N+](=O)[O-])cc(c23)C(=O)N1c1ccc(S(=O)(=O)Nc2ccc(C(F)(F)F)cc2)cc1` [SM4, 4-(5-nitro-1,3-dioxobenzo(de)isoquinolin-2-yl)-N-[4-(trifluoromethyl)phenyl]benzenesulfonamide] gave an IC50 of 10 µM.
